Source: ChEMBL document CHEMBL1148249, “Design and synthesis of bridged gamma-lactams as analogues of beta-lactam antibiotics” (Bioorg Med Chem Lett, 2004)
Values after ≈ are worked out from the molar mass of the structure shown. Active and inactive are the calls of the source. The rule behind the calls is not given here.

Legend:
[1] = Time dependent inhibition of hydrolysis of nitrocefin after 5 min pre-incubation with TEM-1 beta-lactamase (class 1)
[2] = Half life at a pH of 9 and temperature 37 degree; assay type: ADME; conditions: pH 9
Staphylococcus aureus [3] = assay: Minimum inhibitory concentration against Staphylococcus aureus; No activity; assay type: functional, organism-based
[4] = Inhibition of hydrolysis of nitrocefin after 5 min pre-incubation with TEM-1 beta-lactamase (class 1)
[5] = Antibacterial activity expressed as binding to PBP 1a of Pseudomonas aeruginosa
[6] = Antibacterial activity expressed as binding to PBP 5 of Pseudomonas aeruginosa
[7] = Antibacterial activity expressed as binding to PBP 4 of Pseudomonas aeruginosa
[8] = Antibacterial activity expressed as binding to PBP 2 of Pseudomonas aeruginosa
[9] = Antibacterial activity expressed as binding to PBP 1b of Pseudomonas aeruginosa
[10] = Antibacterial activity expressed as binding to PBP 3 of Pseudomonas aeruginosa
Serratia marcescens = assay: Minimum inhibitory concentration against Serratia marcescens; 40-80 ug/mL; assay type: functional
Enterobacter cloacae = assay: Minimum inhibitory concentration against Enterobacter cloacae; 40-80 ug/mL; assay type: functional
Pseudomonas aeruginosa = assay: Minimum inhibitory concentration against Pseudomonas aeruginosa; 40-80 ug/mL; assay type: functional
Staphylococcus aureus [11] = assay: Minimum inhibitory concentration against Staphylococcus aureus;; assay type: functional

SMILES	IC50 [1] [µM]	half-life [2] [min]	MIC (Staphylococcus aureus [3])	IC50 [4] [µM]	other results
O=C(O)[C@H]1/C(=C/CO)O[C@@H]2CC(=O)N21 [CLAVULANIC ACID]	0.065	120	–	–	–
CC(O)[C@H]1C(=O)N2C(C(=O)O)=C(SCCNC=N)C[C@H]12 (single isomer, unassigned) [IMIPENEM ANHYDROUS]	–	–	–	–	IC50 [5]: 0.3 µM; IC50 [6]: 2.3 µM; IC50 [7]: < 0.1 µM; IC50 [8]: < 0.6 µM; IC50 [9]: 0.6 µM
COC1=C(C(=O)OCc2ccc([N+](=O)[O-])cc2)N2C[C@@H](CC2=O)C1	–	6	inactive	54	–
CC[C@@H]1C(=O)N2C[C@@H]1C=C(OC)C2C(=O)OCc1ccc([N+](=O)[O-])cc1 (stereo partly specified)	420	55	inactive	–	–
COC1=CC2CC(=O)N(C2)C1C(=O)OCc1ccc([N+](=O)[O-])cc1 (stereo unspecified)	–	–	inactive	45	–

Now from value to compound, other results behind:

IC50 [1] [µM]	half-life [2] [min]	MIC (Staphylococcus aureus [3])	IC50 [4] [µM]	SMILES	other results
–	42	inactive	> 1000	CC[C@@H]1C(=O)N2C[C@@H]1CC(OC)=C2C(=O)OCc1ccc([N+](=O)[O-])cc1	–
700	25	inactive	–	CC[C@@H]1C(=O)N2C[C@@H]1CC(OC)=C2C(=O)O	IC50 [5]: > 50 µM; IC50 [10]: 5 µM; MIC (Serratia marcescens): 80 µg/mL (≈ 355 µM); IC50 [6]: 50 µM; IC50 [7]: 5 µM; MIC (Enterobacter cloacae): 80 µg/mL (≈ 355 µM); IC50 [8]: 50 µM; IC50 [9]: > 50 µM; MIC (Pseudomonas aeruginosa): 80 µg/mL (≈ 355 µM)
–	14	–	280	COC1=C[C@@H]2CC(=O)N(C2)C1C(=O)O (stereo partly specified)	MIC (Staphylococcus aureus [11]): 80 µg/mL (≈ 406 µM); MIC (Serratia marcescens): 80 µg/mL (≈ 406 µM); MIC (Enterobacter cloacae): 80 µg/mL (≈ 406 µM); MIC (Pseudomonas aeruginosa): 80 µg/mL (≈ 406 µM)
